For four compounds, IC50 results are on record in ChEMBL document CHEMBL1127112, “Synthesis and pharmacologic activity of hydroxyacetophenone-substituted benzophenone/xanthone leukotriene B4 receptor antagonists” (Bioorg Med Chem Lett, 1993).

The species entered for this assay is Homo sapiens. Description: Compound was evaluated for inhibition of LTB4 induced chemotaxis of human neutrophils. It is filed as functional.
With `CCc1cc(C(C)=O)c(O)cc1OCCCCCC(C)(C)c1nn[nH]n1` [LY-255283], the half-inhibitory concentration (IC50) (usually the concentration that inhibits the measured activity by half) was determined as 7.4 µM.

Consider `CCc1cc(C(C)=O)c(O)cc1OCCCOc1ccc(C(=O)c2cccc(C(=O)O)c2)cc1CCC(=O)O`, for which it took 16 µM to reach half-maximal inhibition (IC50). The result for `CCc1cc(C(C)=O)c(O)cc1OCCCOc1ccc2c(=O)c3cc(C(=O)O)ccc3oc2c1CCC(=O)O` reads 0.32 µM; that for `COc1ccc(/C=C/CCCCOc2ccc(C(=O)c3cccc(C(=O)O)c3)cc2CCC(=O)O)cc1`, 6 µM.
